Data on 8 compounds can be found in patent publication US20210053957A1, “HERBICIDAL COMPOUNDS” (SYNGENTA PARTICIPATIONS AG, priority 2018, published 2021).

Structures are written as SMILES.

Common to all, as to test: Post-emergence efficacy, glasshouse spray test
What all share (type): in vivo

The subject of test [1] is Amaranthus palmeri (AMAPA). The following applies: Application Rate 500 g/Ha, evaluated after 13 days; for pest or weed control at 500 g/ha: Amaranthus palmeri, post-emergence, 312 h, read-out: Control of weed species after post-emergence application, AMAPA (100=total damage to plant; 0=no damage to plant). The procedure: (§1) Seeds of a variety of test species were sown in standard soil in pots. After cultivation for 14 days (post-emergence) under controlled conditions in a glasshouse (at 24/16° C. day/night; 14 hours light; 65% humidity), the plants were sprayed with an aqueous spray solution derived from the dissolution of the technical active ingredient formula (I) in a small amount of acetone and a special solvent and emulsifier mixture referred to as IF50 (11.12% Emulsogen EL360 TM+44.44% N-methyl pyrrolidone+44.44% Dowanol DPM glycolether), to create a 50 g/l solution which was then diluted to required concentration using 0.25% or 1% Empicol ESC70 (Sodium lauryl ether sulphate)+1% ammonium sulphate as diluent. The test plants were then grown in a glasshouse under controlled conditions (at 24/16° C., day/night; 14 hours light; 65% humidity) and watered twice daily. After 13 days the test was evaluated (100=total damage to plant; 0=no damage to plant).
(§2) Ipomoea hederacea (IPOHE), Euphorbia heterophylla (EPHHL), Chenopodium album (CHEAL), Amaranthus palmeri (AMAPA), Lolium perenne (LOLPE), Digitaria sanguinalis (DIGSA), Eleusine indica (ELEIN), Echinochloa crus-galli (ECHCG), Setaia fabei (SETFA)

Test [2] concerns Chenopodium album (CHEAL). The following applies: Application Rate 500 g/Ha, evaluated after 13 days; for pest or weed control at 500 g/ha: Chenopodium album, post-emergence, 312 h, read-out: Control of weed species after post-emergence application, CHEAL (100=total damage to plant; 0=no damage to plant). The procedure:
as §1, §2

Test [3] relates to Digitaria sanguinalis (DIGSA). The following applies: Application Rate 500 g/Ha, evaluated after 13 days; for pest or weed control at 500 g/ha: Digitaria sanguinalis, post-emergence, 312 h, read-out: Control of weed species after post-emergence application, DIGSA (100=total damage to plant; 0=no damage to plant). The procedure: as §1, §2
Test [4] has as its system Echinochloa crus-galli (ECHCG). The conditions noted are these: Application Rate 500 g/Ha, evaluated after 13 days; for pest or weed control at 500 g/ha: Echinochloa crus-galli, post-emergence, 312 h, read-out: Control of weed species after post-emergence application, ECHCG (100=total damage to plant; 0=no damage to plant). The procedure:
as §1, §2

Test [5] concerns Eleusine indica (ELEIN). The following applies: Application Rate 500 g/Ha, evaluated after 13 days; for pest or weed control at 500 g/ha: Eleusine indica, post-emergence, 312 h, read-out: Control of weed species after post-emergence application, ELEIN (100=total damage to plant; 0=no damage to plant). The procedure:
as §1, §2

Test [6] has as its system Ipomoea hederacea (IPOHE). The following applies: Application Rate 500 g/Ha, evaluated after 13 days; for pest or weed control at 500 g/ha: Ipomoea hederacea, post-emergence, 312 h, read-out: Control of weed species after post-emergence application, IPOHE (100=total damage to plant; 0=no damage to plant). The procedure: as §1, §2
Test [7] relates to Lolium perenne (LOLPE). The following applies: Application Rate 500 g/Ha, evaluated after 13 days; for pest or weed control at 500 g/ha: Lolium perenne, post-emergence, 312 h, read-out: Control of weed species after post-emergence application, LOLPE (100=total damage to plant; 0=no damage to plant). The procedure:
as §1, §2

The test system of test [8] is Setaia fabei (SETFA). The following applies: Application Rate 500 g/Ha, evaluated after 13 days; for pest or weed control at 500 g/ha: Setaria faberi, post-emergence, 312 h, read-out: Control of weed species after post-emergence application, SETFA (100=total damage to plant; 0=no damage to plant). The procedure: as §1, §2

With `CC(C)c1csc(-c2cc[n+](CCC(=O)O)nc2)n1.O=C([O-])C(F)(F)F` [Compound A24], the “Control of weed species after post-emergence application, AMAPA (100=total damage to plant; 0=no damage to plant)” value in test [1] is given as 0. Besides, the “Control of weed species after post-emergence application, CHEAL (100=total damage to plant; 0=no damage to plant)” value in test [2] came to 0. The “Control of weed species after post-emergence application, DIGSA (100=total damage to plant; 0=no damage to plant)” value in test [3] amounted to 10. Moreover, the “Control of weed species after post-emergence application, ECHCG (100=total damage to plant; 0=no damage to plant)” value in test [4] was determined as 30. Further, the “Control of weed species after post-emergence application, ELEIN (100=total damage to plant; 0=no damage to plant)” value in test [5] was found to be 20. Moreover, the “Control of weed species after post-emergence application, IPOHE (100=total damage to plant; 0=no damage to plant)” value in test [6] came to 10. The “Control of weed species after post-emergence application, LOLPE (100=total damage to plant; 0=no damage to plant)” value in test [7] turned out to be 10. For the same compound, the “Control of weed species after post-emergence application, SETFA (100=total damage to plant; 0=no damage to plant)” value in test [8] was determined as 20.

Consider `COc1csc(-c2cc[n+](CCS(=O)(=O)[O-])nc2)n1` [Compound A26], for which the pest or weed control at 500 g/ha in test [1] is 20%; in test [2], 40%; in test [3], 30%; in test [4], 20%; in test [5], 40%; in test [6] it was 40%. Besides, the pest or weed control at 500 g/ha in test [7] stood at 30%; in test [8] it was 40%.

In the case of `Cn1nnc(-c2cc[n+](CCC(=O)O)nc2)n1` [Compound A28], the pest or weed control at 500 g/ha in test [1] was found to be 100%; in test [2], 90%; in test [3] it was 70%; in test [4] it was 100%; in test [5], 100%; in test [6], 30%. The figures for the pest or weed control at 500 g/ha in test [7] and in test [8] were 70% and 100%, respectively.

For the compound `O=C(O)CC[n+]1ccc(-c2cccs2)cn1` [Compound A41], the pest or weed control at 500 g/ha in test [1] was 0%; in test [2], 60%; in test [3], 0%; in test [4], 0%; in test [5], 0%; in test [6], 10%. For the same compound, the pest or weed control at 500 g/ha in test [7] and in test [8] was 0% each time.

`O=S(=O)([O-])CC[n+]1ccc(-c2ncc(Cl)s2)cn1` [Compound A44]: the pest or weed control at 500 g/ha in test [1] was 100%; in test [3], 50%; in test [4], 30%; in test [5], 50%; in test [6] it was 60%; in test [7], 30%. In addition, in test [8], the pest or weed control at 500 g/ha was found to be 60%.

Consider `O=C(O)CC[n+]1ccc(-c2nc(Cl)cs2)cn1` [Compound A46], for which the pest or weed control at 500 g/ha in test [2] was 70%; in test [3], 60%; in test [4], 80%; in test [5], 60%; in test [6] it was 50%; in test [7], 40%. Besides, the pest or weed control at 500 g/ha in test [8] was 60%.

With `O=C(O)CC[n+]1ccc(-c2ccco2)cn1` [Compound A52], the pest or weed control at 500 g/ha in test [1] came to 50%; in test [3] it was 30%; in test [4] it was 10%; in test [5] it was 10%; in test [6] it was 10%; in test [7], 0%. In addition, in test [8], the pest or weed control at 500 g/ha was 10%.

With `O=S(=O)([O-])CC[n+]1ccc(-c2ccco2)cn1` [Compound A53], the pest or weed control at 500 g/ha in test [1] was found to be 60%; in test [3] it was 90%; in test [4], 30%; in test [5] it was 60%; in test [6] it was 50%; in test [7], 20%. The pest or weed control at 500 g/ha in test [8] stood at 40%.
